# In PubChem BioAssay (NCI):
#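 Compound exposure: 48 hours, 5 concentrations, 96-well plates. TGI marks complete inhibition of growth.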
# Columns and labels:
# Assay in all cases: growth of human tumour cells (NCI), 48 h
# RXF 393 renal = tested on: RXF 393 renal
# EKVX NSCLC = tested on: EKVX NSCLC
# UACC-62 melanoma = tested on: UACC-62 melanoma
# MDA-MB-435 = tested on: MDA-MB-435
# LOX IMVI melanoma = tested on: LOX IMVI melanoma
# SF-295 CNS = tested on: SF-295 CNS
# NCI-H522 lung = tested on: NCI-H522 lung
# A549 NSCLC = tested on: A549 NSCLC
# BT-549 breast = tested on: BT-549 breast
# A498 renal = tested on: A498 renal
# IGROV1 ovarian = tested on: IGROV1 ovarian
# MALME-3M melanoma = tested on: MALME-3M melanoma
# HCT-116 colon = tested on: HCT-116 colon
# SW-620 colon = tested on: SW-620 colon
# M14 melanoma = tested on: M14 melanoma
# HT29 colon = tested on: HT29 colon
# OVCAR-3 ovarian = tested on: OVCAR-3 ovarian
# CAKI-1 renal = tested on: CAKI-1 renal
# NCI/ADR-RES ovarian = tested on: NCI/ADR-RES ovarian
# U251 CNS = tested on: U251 CNS
# HL-60(TB) leukemia = tested on: HL-60(TB) leukemia
# SF-268 CNS = tested on: SF-268 CNS
# K-562 leukemia = tested on: K-562 leukemia
# HCT-15 colon = tested on: HCT-15 colon
# UO-31 renal = tested on: UO-31 renal
# SK-MEL-2 melanoma = tested on: SK-MEL-2 melanoma
# SK-MEL-5 melanoma = tested on: SK-MEL-5 melanoma
# KM12 colon = tested on: KM12 colon
# HOP-62 NSCLC = tested on: HOP-62 NSCLC
# SF-539 CNS = tested on: SF-539 CNS
# MCF7 breast = tested on: MCF7 breast
# OVCAR-4 ovarian = tested on: OVCAR-4 ovarian
# OVCAR-5 ovarian = tested on: OVCAR-5 ovarian
# HOP-92 NSCLC = tested on: HOP-92 NSCLC
# MDA-MB-231 breast = tested on: MDA-MB-231 breast
# HS 578T breast = tested on: HS 578T breast
# DU-145 prostate = tested on: DU-145 prostate
# TK-10 renal = tested on: TK-10 renal
# SNB-75 CNS = tested on: SNB-75 CNS
# SK-MEL-28 melanoma = tested on: SK-MEL-28 melanoma
# CCRF-CEM leukemia = tested on: CCRF-CEM leukemia
# MDA-N = tested on: MDA-N
# NCI-H23 lung = tested on: NCI-H23 lung
# OVCAR-8 ovarian = tested on: OVCAR-8 ovarian
# 786-0 renal = tested on: 786-0 renal
# HCC-2998 colon = tested on: HCC-2998 colon
# SNB-19 CNS = tested on: SNB-19 CNS
# UACC-257 melanoma = tested on: UACC-257 melanoma
# ACHN renal = tested on: ACHN renal
# T-47D breast = tested on: T-47D breast
# PC-3 prostate = tested on: PC-3 prostate
# SN12C renal = tested on: SN12C renal
# COLO 205 colon = tested on: COLO 205 colon
# RPMI-8226 leukemia = tested on: RPMI-8226 leukemia
# NCI-H226 lung = tested on: NCI-H226 lung
# SK-OV-3 ovarian = tested on: SK-OV-3 ovarian
# MOLT-4 leukemia = tested on: MOLT-4 leukemia
# SR leukemia = tested on: SR leukemia
# NCI-H460 lung = tested on: NCI-H460 lung
structure (smiles),measurement,setting,value
O=C(NCCCN1CCN(CCCNC(=O)Nc2cccc3ccccc23)CC1)Nc1cccc2ccccc12,TGI,RXF 393 renal,27.6 µM
same,TGI,EKVX NSCLC,33.2 µM
same,TGI,UACC-62 melanoma,11.9 µM
same,TGI,MDA-MB-435,31.4 µM
same,TGI,LOX IMVI melanoma,20.7 µM
same,TGI,SF-295 CNS,27.4 µM
same,TGI,NCI-H522 lung,33.4 µM
same,TGI,A549 NSCLC,33.5 µM
same,TGI,BT-549 breast,27.1 µM
same,TGI,A498 renal,30.5 µM
same,TGI,IGROV1 ovarian,35.9 µM
same,TGI,MALME-3M melanoma,11.8 µM
same,TGI,HCT-116 colon,28 µM
same,TGI,SW-620 colon,22.9 µM
same,TGI,M14 melanoma,29.9 µM
same,TGI,HT29 colon,44.3 µM
same,TGI,OVCAR-3 ovarian,26.5 µM
same,TGI,CAKI-1 renal,31.7 µM
same,TGI,NCI/ADR-RES ovarian,> 100 µM
same,TGI,U251 CNS,18.9 µM
same,TGI,HL-60(TB) leukemia,67.2 µM
same,TGI,SF-268 CNS,38.8 µM
same,TGI,K-562 leukemia,> 100 µM
same,TGI,HCT-15 colon,31.9 µM
same,TGI,UO-31 renal,31.2 µM
same,TGI,SK-MEL-2 melanoma,34.2 µM
same,TGI,SK-MEL-5 melanoma,30.2 µM
same,TGI,KM12 colon,43.3 µM
same,TGI,HOP-62 NSCLC,23.9 µM
same,TGI,SF-539 CNS,34.3 µM
same,TGI,MCF7 breast,36.4 µM
same,TGI,OVCAR-4 ovarian,44.1 µM
same,TGI,OVCAR-5 ovarian,28.3 µM
same,TGI,HOP-92 NSCLC,29.5 µM
same,TGI,MDA-MB-231 breast,8.21 µM
same,TGI,HS 578T breast,49.1 µM
same,TGI,DU-145 prostate,31.3 µM
same,TGI,TK-10 renal,28.4 µM
same,TGI,SNB-75 CNS,36.5 µM
same,TGI,SK-MEL-28 melanoma,28.7 µM
same,TGI,CCRF-CEM leukemia,71.3 µM
same,TGI,MDA-N,30 µM
same,TGI,NCI-H23 lung,33.6 µM
same,TGI,OVCAR-8 ovarian,38.7 µM
same,TGI,786-0 renal,34.1 µM
same,TGI,HCC-2998 colon,4.58 µM
same,TGI,SNB-19 CNS,48.4 µM
same,TGI,UACC-257 melanoma,25.9 µM
same,TGI,ACHN renal,30.1 µM
same,TGI,T-47D breast,32.1 µM
same,TGI,PC-3 prostate,21.5 µM
same,TGI,SN12C renal,30.7 µM
same,TGI,COLO 205 colon,31.5 µM
same,TGI,RPMI-8226 leukemia,40 µM
c1ccc([P+](CCCCCC[P+](c2ccccc2)(c2ccccc2)c2ccccc2)(c2ccccc2)c2ccccc2)cc1,TGI,RXF 393 renal,> 100 µM
same,TGI,EKVX NSCLC,> 100 µM
same,TGI,UACC-62 melanoma,> 100 µM
same,TGI,MDA-MB-435,72.9 µM
same,TGI,LOX IMVI melanoma,38.6 µM
same,TGI,SF-295 CNS,> 100 µM
same,TGI,NCI-H522 lung,> 100 µM
same,TGI,A549 NSCLC,> 100 µM
same,TGI,A498 renal,> 100 µM
same,TGI,IGROV1 ovarian,30.8 µM
same,TGI,MALME-3M melanoma,> 100 µM
same,TGI,HCT-116 colon,> 100 µM
same,TGI,SW-620 colon,> 100 µM
same,TGI,M14 melanoma,> 100 µM
same,TGI,HT29 colon,> 100 µM
same,TGI,OVCAR-3 ovarian,> 100 µM
same,TGI,CAKI-1 renal,> 100 µM
same,TGI,NCI/ADR-RES ovarian,> 100 µM
same,TGI,U251 CNS,> 100 µM
same,TGI,HL-60(TB) leukemia,67 µM
same,TGI,NCI-H226 lung,> 100 µM
same,TGI,SF-268 CNS,> 100 µM
same,TGI,K-562 leukemia,> 100 µM
same,TGI,HCT-15 colon,> 100 µM
same,TGI,UO-31 renal,> 100 µM
same,TGI,KM12 colon,63.2 µM
same,TGI,HOP-62 NSCLC,> 100 µM
same,TGI,SF-539 CNS,39 µM
same,TGI,MCF7 breast,74.1 µM
same,TGI,OVCAR-4 ovarian,> 100 µM
same,TGI,OVCAR-5 ovarian,> 100 µM
same,TGI,HOP-92 NSCLC,66.7 µM
same,TGI,MDA-MB-231 breast,> 100 µM
same,TGI,HS 578T breast,> 100 µM
same,TGI,DU-145 prostate,> 100 µM
same,TGI,SK-OV-3 ovarian,> 100 µM
same,TGI,MOLT-4 leukemia,> 100 µM
same,TGI,TK-10 renal,> 100 µM
same,TGI,SNB-75 CNS,> 100 µM
same,TGI,SK-MEL-28 melanoma,> 100 µM
same,TGI,CCRF-CEM leukemia,> 100 µM
same,TGI,MDA-N,54.9 µM
same,TGI,NCI-H23 lung,69.6 µM
same,TGI,OVCAR-8 ovarian,71.2 µM
same,TGI,786-0 renal,> 100 µM
same,TGI,HCC-2998 colon,> 100 µM
same,TGI,SNB-19 CNS,> 100 µM
same,TGI,UACC-257 melanoma,8.64 µM
same,TGI,ACHN renal,> 100 µM
same,TGI,T-47D breast,> 100 µM
same,TGI,PC-3 prostate,> 100 µM
same,TGI,SR leukemia,> 100 µM
same,TGI,NCI-H460 lung,> 100 µM
same,TGI,SN12C renal,> 100 µM
same,TGI,COLO 205 colon,13.8 µM
COC1C(O)C(C)OC(OC2CCC3(C)C(CCC4C3C(O)CC3(C)C(C5=CC(=O)OC5)CCC43O)C2)C1O (stereo unspecified),TGI,RXF 393 renal,0.237 µM
same,TGI,EKVX NSCLC,0.536 µM
same,TGI,UACC-62 melanoma,1.25 µM
same,TGI,MDA-MB-435,1.24 µM
same,TGI,LOX IMVI melanoma,0.775 µM
same,TGI,SF-295 CNS,1.23 µM
same,TGI,NCI-H522 lung,0.251 µM
same,TGI,A549 NSCLC,0.192 µM
same,TGI,BT-549 breast,0.429 µM
same,TGI,A498 renal,0.703 µM
same,TGI,IGROV1 ovarian,10.7 µM
same,TGI,MALME-3M melanoma,0.667 µM
same,TGI,HCT-116 colon,0.533 µM
same,TGI,SW-620 colon,4.9 µM
same,TGI,M14 melanoma,1.02 µM
same,TGI,HT29 colon,2.23 µM
same,TGI,OVCAR-3 ovarian,0.553 µM
same,TGI,CAKI-1 renal,0.469 µM
same,TGI,HL-60(TB) leukemia,0.665 µM
same,TGI,NCI-H226 lung,2.39 µM
same,TGI,SF-268 CNS,0.532 µM
same,TGI,K-562 leukemia,5.28 µM
same,TGI,HCT-15 colon,1.03 µM
same,TGI,SK-MEL-2 melanoma,1.59 µM
same,TGI,SK-MEL-5 melanoma,0.501 µM
same,TGI,KM12 colon,6.12 µM
same,TGI,HOP-62 NSCLC,0.473 µM
same,TGI,SF-539 CNS,0.22 µM
same,TGI,OVCAR-5 ovarian,1.77 µM
same,TGI,HOP-92 NSCLC,3.33 µM
same,TGI,MDA-MB-231 breast,24.4 µM
same,TGI,HS 578T breast,> 100 µM
same,TGI,DU-145 prostate,0.173 µM
same,TGI,SK-OV-3 ovarian,0.905 µM
same,TGI,MOLT-4 leukemia,0.174 µM
same,TGI,TK-10 renal,1.57 µM
same,TGI,SNB-75 CNS,2.78 µM
same,TGI,SK-MEL-28 melanoma,1.62 µM
same,TGI,MDA-N,0.905 µM
same,TGI,NCI-H23 lung,0.308 µM
same,TGI,OVCAR-8 ovarian,1.67 µM
same,TGI,HCC-2998 colon,4.91 µM
same,TGI,SNB-19 CNS,2.04 µM
same,TGI,UACC-257 melanoma,3.13 µM
same,TGI,ACHN renal,0.684 µM
same,TGI,T-47D breast,2.59 µM
same,TGI,PC-3 prostate,5.17 µM
same,TGI,SR leukemia,> 100 µM
same,TGI,NCI-H460 lung,0.777 µM
same,TGI,SN12C renal,0.426 µM
same,TGI,COLO 205 colon,1.57 µM
same,TGI,RPMI-8226 leukemia,0.793 µM
